Data on 34 compounds can be found in patent US8569493B2 (Santen Pharmaceutical Co., Ltd., priority 2007, dated 2013).

This assay concerns the target T1, Recombinant human GR (Homo sapiens, UniProt P04150).
T1 construct: purchased Invitrogen P2816
T1 sequence (P04150 1-777): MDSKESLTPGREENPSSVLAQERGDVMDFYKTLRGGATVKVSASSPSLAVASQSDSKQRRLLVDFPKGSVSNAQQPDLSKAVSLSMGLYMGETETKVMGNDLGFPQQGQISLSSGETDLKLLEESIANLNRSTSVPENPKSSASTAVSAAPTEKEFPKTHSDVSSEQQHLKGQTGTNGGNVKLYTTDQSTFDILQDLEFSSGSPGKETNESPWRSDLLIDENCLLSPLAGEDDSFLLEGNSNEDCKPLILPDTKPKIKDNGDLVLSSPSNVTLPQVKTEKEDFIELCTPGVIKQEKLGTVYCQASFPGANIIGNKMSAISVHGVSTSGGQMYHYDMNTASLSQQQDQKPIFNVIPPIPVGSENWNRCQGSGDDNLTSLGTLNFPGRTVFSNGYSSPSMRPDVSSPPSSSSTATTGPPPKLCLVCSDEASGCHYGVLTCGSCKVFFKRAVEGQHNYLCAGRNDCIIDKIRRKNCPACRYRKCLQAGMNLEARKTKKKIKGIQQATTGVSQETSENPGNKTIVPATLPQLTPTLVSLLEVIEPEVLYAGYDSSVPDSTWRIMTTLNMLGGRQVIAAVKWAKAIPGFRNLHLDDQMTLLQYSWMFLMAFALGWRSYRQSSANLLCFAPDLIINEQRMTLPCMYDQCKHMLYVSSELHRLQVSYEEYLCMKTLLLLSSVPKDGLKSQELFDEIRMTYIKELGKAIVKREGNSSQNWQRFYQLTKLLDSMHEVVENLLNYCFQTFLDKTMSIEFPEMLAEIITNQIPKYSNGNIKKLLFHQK
Nature of the assay: GR competitor assay by fluorescence polarization (binding activity to glucocorticoid receptor). Particulars: 20 μM test compound solution, 10 μL per well plus 5 μL 4×GS1 and 5 μL 4×GR; 2 to 4 hours at room temperature; ratio of 100% or more is indicated by 100%. As for the experimental part: 1. Evaluation Test for Binding Activity to Glucocorticoid Receptor (hereinafter referred to as “GR”)
In order to evaluate a binding activity to GR, a receptor competitor assay was carried out by a fluorescence polarization method. In the assay, a GR competitor assay kit (manufactured by Invitrogen, cat No. P2816) was used, and a procedure was carried out according to the protocol attached to the kit. Hereinafter, the specific method will be described.
(Preparation of Reagents)
GR screening buffer: A buffer containing 10 mM potassium phosphate (pH 7.4), 20 mM sodium molybdate (Na2MoO4), 0.1 mM ethylene diamine tetraacetic acid (EDTA), 5 mM dithiothreitol (DTT), 0.1 mM stabilizing peptide and 2% dimethylsulfoxide was prepared.
4×GS1 solution: Fluormone™ GS1, which is a fluorescent glucocorticoid ligand, was diluted with GR screening buffer, whereby a 4 nM solution was prepared.
4×GR solution: Recombinant human GR was diluted with GR screening buffer, whereby a 16 nM solution was prepared.
(Preparation of Test Compound Solution)
After a test compound was dissolved in dimethylsulfoxide, it was diluted with GR screening buffer, whereby a 20 μM test compound solution was prepared.
(Test Method and Measurement Method)
1) The test compound solution was added in an amount of 10 μL into each well of a 384-well plate, and then, 4×GS1 solution and 4×GR solution were added in an amount of 5 μL into each well, respectively.
2) The plate was incubated in a dark place at room temperature for 2 to 4 hours.
3) By using a multimode plate reader, Analyst™ HT (manufactured by LJL Biosystems), fluorescence polarization of each well was measured. As the blank, a well containing GR screening buffer in place of the test compound and 4×GS1 solution was used.
4) The same procedure as that in the above 1) to 3) was carried out except that GR screening buffer was used in place of the test compound solution, and the obtained result was taken as the negative control.
5) The same procedure as that in the above 1) to 3) was carried out except that 2 mM dexamethasone was used in place of the test compound solution, and the obtained result was taken as the positive control.
(Calculation Equation of GR Binding Ratio)
A GR binding ratio (%) was calculated from the following equation. GR binding ratio(%)=100×[1−(fluorescence polarization of test compound solution−fluorescence polarization of positive control solution)/(fluorescence polarization of negative control solution−fluorescence polarization of positive control solution)] (Test Results and Discussion)
On the technique in general: Polarisation of emitted light reports the rotation of a fluorescent probe.
The inhibition is the share of the control response that was lost under treatment. As for `COc1cc(OS(=O)(=O)Cc2ccccc2Cl)ccc1-c1ccc2c(c1COc1cc(F)ccc1C)N(C)C(=O)C(C)(C)N2` [Compound 1-27], the inhibition at 10 µM came to 99%.
For `COc1cc(OS(=O)(=O)CCCN2CCCCC2)ccc1-c1ccc2c(c1COc1cc(F)ccc1C)N(C)C(=O)C(C)(C)N2` [Compound 3-4], the inhibition at 10 µM is 71%.
Turning to `COc1cc(OS(=O)(=O)Cc2ccc(Cl)cc2)ccc1-c1ccc2c(c1COc1cc(F)ccc1C)N(C)C(=O)C(C)(C)N2` [Compound 1-20], the inhibition at 10 µM worked out at 87%.
Take `CCCS(=O)(=O)Oc1ccc(-c2ccc3c(c2COc2cc(F)ccc2C)N(C)C(=O)C(C)(C)N3)c(OC)c1` [Compound 1-4]: the inhibition at 10 µM stood at 99%.
In the case of `CCCCS(=O)(=O)Oc1ccc(-c2ccc3c(c2COc2cc(F)ccc2C)N(C)C(=O)C(C)(C)N3)c(OC)c1` [Compound 1-12], the inhibition at 10 µM was found to be 100%.
Turning to `CCCS(=O)(=O)Oc1ccc(-c2ccc3c(c2CNc2cc(F)ccc2C)N(C)C(=O)C(C)(C)N3)c(OC)c1` [Compound 1-58], the inhibition at 10 µM was found to be 100%.
With `COc1cc(OS(=O)(=O)CC(C)C)ccc1-c1ccc2c(c1COC(=O)c1ccc(C)s1)N(C)C(=O)C(C)(C)N2` [Compound 1-34], the inhibition at 10 µM came to 100%.
To `COc1cc(OS(=O)(=O)c2ccccc2Cl)ccc1-c1ccc2c(c1COc1cc(F)ccc1C)N(C)C(=O)C(C)(C)N2` [Compound 1-8] belongs 85%.
For the compound `COc1cc(OS(=O)(=O)c2ccco2)ccc1-c1ccc2c(c1COc1cc(F)ccc1C)N(C)C(=O)C(C)(C)N2` [Compound 1-5], the inhibition at 10 µM came out at 95%.
To `COc1cc(OS(=O)(=O)C(C)C)ccc1-c1ccc2c(c1COc1cc(F)ccc1C)N(C)C(=O)C(C)(C)N2` [Compound 1-14] belongs 100%.
To `COc1ccc([N+](=O)[O-])cc1OCc1c(-c2ccc(OS(=O)(=O)C3CCCC3)cc2OC)ccc2c1N(C)C(=O)C(C)(C)N2` [Compound 1-41] belongs 100%; to `COc1ccc([N+](=O)[O-])cc1OCc1c(-c2ccc(OS(=O)(=O)C(C)C)cc2OC)ccc2c1N(C)C(=O)C(C)(C)N2` [Compound 1-42], 100%.
In the case of `COc1cc(OS(=O)(=O)Cc2ccccc2C)ccc1-c1ccc2c(c1COc1cc(F)ccc1C)N(C)C(=O)C(C)(C)N2` [Compound 1-28], the inhibition at 10 µM was 91%.
Regarding `COc1cc(OS(=O)(=O)c2ccccc2)ccc1-c1ccc2c(c1COC(=O)c1ccc(C)s1)N(C)C(=O)C(C)(C)N2` [Compound 1-7], the inhibition at 10 µM came out at 86%.
In the case of `COc1cc(OS(C)(=O)=O)ccc1-c1ccc2c(c1COC(=O)c1ccc(C)s1)N(C)C(=O)C(C)(C)N2` [Compound 1-6], the inhibition at 10 µM was determined as 100%.
In the case of `CCS(=O)(=O)Oc1ccc(-c2ccc3c(c2COc2cc(F)ccc2C)N(C)C(=O)C(C)(C)N3)c(OC)c1` [Compound 1-13], the inhibition at 10 µM amounted to 100%.
Take `COc1cc(OS(=O)(=O)C(F)(F)F)ccc1-c1ccc2c(c1COc1cc(F)ccc1C)N(C)C(=O)C(C)(C)N2` [Compound 1-3]: the inhibition at 10 µM is 99%.
To `COc1ccc([N+](=O)[O-])cc1OCc1c(-c2ccc(OS(=O)(=O)CCC(F)(F)F)cc2OC)ccc2c1N(C)C(=O)C(C)(C)N2` [Compound 1-39] belongs 100%; to `COc1cccc(S(=O)(=O)Oc2ccc(-c3ccc4c(c3COc3cc(F)ccc3C)N(C)C(=O)C(C)(C)N4)c(OC)c2)c1` [Compound 1-15], 82%; to `COc1ccccc1NCc1c(-c2ccc(OS(C)(=O)=O)cc2OC)ccc2c1N(C)C(=O)C(C)(C)N2` [Compound 2-1, 7-(2-Methoxy-4-methylsulfonyloxyphenyl)-8-(2-methoxyphenylaminomethyl)-1,3,3-trimethyl-3,4-dihydro-1H-quinoxalin-2-one], 95%.
To `COc1cc(OS(=O)(=O)C2CC2)ccc1-c1ccc2c(c1COc1cc(F)ccc1C)N(C)C(=O)C(C)(C)N2` [Compound 1-23] belongs 94%; to `COc1cc(OS(=O)(=O)c2cccc(Cl)c2)ccc1-c1ccc2c(c1COc1cc(F)ccc1C)N(C)C(=O)C(C)(C)N2` [Compound 1-16], 68%.
Turning to `CCCS(=O)(=O)Oc1ccc(-c2ccc3c(c2COc2cc([N+](=O)[O-])ccc2OC)N(C)C(=O)C(C)(C)N3)c(OC)c1` [Compound 1-44], the inhibition at 10 µM came out at 93%.
As to `COc1ccc([N+](=O)[O-])cc1OCc1c(-c2ccc(OS(=O)(=O)C3CC3)cc2OC)ccc2c1N(C)C(=O)C(C)(C)N2` [Compound 1-43], the inhibition at 10 µM is 100%.
Consider `COc1ccccc1NCc1c(-c2ccc(OS(=O)(=O)CC(C)C)cc2OC)ccc2c1N(C)C(=O)C(C)(C)N2` [Compound 2-5, 7-(4-Isobutylsulfonyloxy-2-methoxyphenyl)-8-(2-methoxyphenylaminomethyl)-1,3,3-trimethyl-3,4-dihydro-1H-quinoxalin-2-one], for which the inhibition at 10 µM came to 97%.
For `COc1cc(OS(=O)(=O)CCCN2CCOCC2)ccc1-c1ccc2c(c1COc1cc(F)ccc1C)N(C)C(=O)C(C)(C)N2` [Compound 3-3, 8-(5-Fluoro-2-methylphenoxymethyl)-7-[2-methoxy-4-[3-(morpholin-4-yl)propylsulfonyloxy]phenyl]-1,3,3-trimethyl-3,4-dihydro-1H-quinoxalin-2-one], the inhibition at 10 µM amounted to 100%.
On to `COc1cc(OS(=O)(=O)C2CC2)ccc1-c1ccc2c(c1COc1cc([N+](=O)[O-])ccc1C)N(C)C(=O)C(C)(C)N2` [Compound 1-45], for which the inhibition at 10 µM is 94%.
Consider `COc1ccccc1NCc1c(-c2ccc(OS(=O)(=O)c3ccccc3)cc2OC)ccc2c1N(C)C(=O)C(C)(C)N2` [Compound 2-2, 8-(2-Methoxyphenylaminomethyl)-7-(2-methoxy-4-phenylsulfonyloxyphenyl)-1,3,3-trimethyl-3,4-dihydro-1H-quinoxalin-2-one], for which the inhibition at 10 µM was found to be 89%.
The result for `COc1cc(NS(C)(=O)=O)ccc1-c1ccc2c(c1COc1cc(F)ccc1C)N(C)C(=O)C(C)(C)N2` [Compound 1-25] reads 92%; that for `COc1cc(OS(=O)(=O)Cc2ccc(C)cc2)ccc1-c1ccc2c(c1COc1cc(F)ccc1C)N(C)C(=O)C(C)(C)N2` [Compound 1-19], 91%; that for `COc1cc(OS(=O)(=O)C2CCCC2)ccc1-c1ccc2c(c1CNc1cc(F)ccc1C)N(C)C(=O)C(C)(C)N2` [Compound 1-57], 93%.
Regarding `COc1cc(OS(=O)(=O)C2CCCCC2)ccc1-c1ccc2c(c1COc1cc(F)ccc1C)N(C)C(=O)C(C)(C)N2` [Compound 1-30], the inhibition at 10 µM is 92%.
`COc1cc(OS(=O)(=O)CCC(F)(F)F)ccc1-c1ccc2c(c1COC(=O)c1ccc(C)s1)N(C)C(=O)C(C)(C)N2` [Compound 1-33]: the inhibition at 10 µM worked out at 95%.
On to `COC(=O)CCS(=O)(=O)Oc1ccc(-c2ccc3c(c2COc2cc(F)ccc2C)N(C)C(=O)C(C)(C)N3)c(OC)c1` [Compound 1-10], for which the inhibition at 10 µM was determined as 100%.
